Data published in patent publication US10343992B2, “1-cyano-pyrrolidine compounds as USP30 inhibitors” (MISSION THERAPEUTICS LIMITED, priority 2015, dated 2019).

target: USP30 (Homo sapiens (Human), UniProt Q70CQ3); assay: USP30 biochemical FP or FI IC50 assay; conditions: read-out: IC50 range
Outline: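 Human USP30 preincubated 30 min at room temperature with compound (8-point series, 100 µM top final) in Tris pH 7.5, Tween 20, BSA, 5 mM β-mercaptoethanol, in duplicate. FP format: 50 nM TAMRA-peptide–isopeptide-ubiquitin substrate, ex 540/em 590. FI format: 100 nM ubiquitin-rhodamine 110, ex 487/em 535. Both read at 0 and after 2 h at room temperature.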

Chain of USP30 (Q70CQ3 57-517): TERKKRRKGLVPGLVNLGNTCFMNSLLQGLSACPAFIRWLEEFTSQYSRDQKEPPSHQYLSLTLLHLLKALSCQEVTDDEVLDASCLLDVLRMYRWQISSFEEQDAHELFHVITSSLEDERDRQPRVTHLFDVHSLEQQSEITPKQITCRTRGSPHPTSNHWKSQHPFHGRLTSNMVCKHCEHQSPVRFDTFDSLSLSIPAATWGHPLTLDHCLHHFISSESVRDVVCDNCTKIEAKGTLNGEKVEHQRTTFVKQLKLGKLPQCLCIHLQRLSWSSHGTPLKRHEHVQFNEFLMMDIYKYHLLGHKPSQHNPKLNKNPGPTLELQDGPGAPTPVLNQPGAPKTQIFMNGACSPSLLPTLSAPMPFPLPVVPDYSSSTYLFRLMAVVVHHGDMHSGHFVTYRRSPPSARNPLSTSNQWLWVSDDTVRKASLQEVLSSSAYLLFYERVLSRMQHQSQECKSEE

Compound | IC50 [nM]
CC(C)Cn1nc(C(=O)N[C@@H]2CCN(C#N)C2)c2ccc(-c3cnn(C)c3)cc21 [Example 153, (R)-N-(1-cyanopyrrolidin-3-yl)-1-isobutyl-6-(1-methyl-1H-pyrazol-4-yl)-1H-indazole-3-carboxamide] | 100 to 1000
N#CN1CCC(NC(=O)Nc2ccc(C(F)(F)F)cc2)C1 (stereo not drawn) [Example 252, 1-(1-cyanopyrrolidin-3-yl)-3-(4-(trifluoromethyl)phenyl)urea] | 100 to 1000
N#CN1CC[C@@H](N2CCN(c3nc(-c4ccccc4)cs3)C2=O)C1 [Example 208, (R)-3-(2-oxo-3-(4-phenylthiazol-2-yl)imidazolidin-1-yl)pyrrolidine-1-carbonitrile] | 100 to 1000
N#CN1CC[C@@H](NC(=O)c2cc(F)c(N3CCCC3)cc2F)C1 [Example 145, (R)-N-(1-cyanopyrrolidin-3-yl)-2,5-difluoro-4-(pyrrolidin-1-yl)benzamide] | < 100
Cc1cc(-c2ccc(NC(=O)N3CC[C@@H]4CN(C#N)C[C@@H]43)cc2)ccn1 [Example 242, (3aR,6aR)-5-cyano-N-(4-(2-methylpyridin-4-yl)phenyl)hexahydropyrrolo[3,4-b]pyrrole-1(2H)-carboxamide] | < 100
CN(C(=O)c1ccc(-c2ccccc2)cc1)C1CCN(C#N)C1 (stereo not drawn) [Example 68, N-(1-cyanopyrrolidin-3-yl)-N-methyl-[1,1′-biphenyl]-4-carboxamide] | 100 to 1000
Cc1nc(-c2ccc(C(=O)N[C@@H]3CCN(C#N)C3)nc2)cc(C(F)(F)F)n1 [Example 180, (R)-N-(1-cyanopyrrolidin-3-yl)-5-(2-methyl-6-(trifluoromethyl)pyrimidin-4-yl)picolinamide] | 100 to 1000
N#CN1CC[C@@H](NC(=O)N2CC(c3ccnc(-c4ccc(Cl)cc4)n3)C2)C1 [Example 237, (R)-3-(2-(4-chlorophenyl)pyrimidin-4-yl)-N-(1-cyanopyrrolidin-3-yl)azetidine-1-carboxamide] | < 100
Cc1cc(-c2cc(C(=O)N(C)[C@@H]3CCN(C#N)C3)on2)ccn1 [Example 273, (R)—N-(1-cyanopyrrolidin-3-yl)-N-methyl-3-(2-methylpyridin-4-yl)isoxazole-5-carboxamide] | 100 to 1000
N#CN1CC[C@@H](NC(=O)N2CCCN(Cc3c(F)cccc3Cl)CC2)C1 [Example 137, (R)-4-(2-chloro-6-fluorobenzyl)-N-(1-cyanopyrrolidin-3-yl)-1,4-diazepane-1-carboxamide] | 100 to 1000
N#CN1CCCC(NC(=O)Nc2cccc(Oc3ccccc3)c2)C1 (stereo not drawn) [Example 250, 1-(1-cyanopiperidin-3-yl)-3-(3-phenoxyphenyl)urea] | 1000 to 10000
N#CN1C[C@H]2CCN(C(=O)c3cc(-c4ccccc4)n[nH]3)[C@H]2C1 (racemic) [Example 52, rac-(3aR,6aR)-1-(3-phenyl-1H-pyrazole-5-carbonyl)hexahydropyrrolo[3,4-b]pyrrole-5(1H)-carbonitrile] | 100 to 1000
COCCN(C(=O)Nc1ccc(C(F)(F)F)cc1)C1CCN(C#N)C1 (stereo not drawn) [Example 205, 1-(1-cyanopyrrolidin-3-yl)-1-(2-methoxyethyl)-3-(4-(trifluoromethyl)phenyl)urea] | 100 to 1000
C[C@H]1CN(C#N)C[C@@H]1NC(=O)c1ccc(N2CCOCC2)c(Cl)c1 (racemic) [Example 175, 3-chloro-N-((trans)-1-cyano-4-methylpyrrolidin-3-yl)-4-morpholinobenzamide] | < 100
N#CN1CC[C@@H](NC(=O)c2ccc(N3CCOCC3)nc2)C1 [Example 99, (R)-N-(1-cyanopyrrolidin-3-yl)-6-morpholinonicotinamide] | 100 to 1000
N#CN1CC[C@@H](NC(=O)c2ccc(Nc3nccc(C4CC4)n3)c(F)c2F)C1 [Example 214, (R)-N-(1-cyanopyrrolidin-3-yl)-4-((4-cyclopropylpyrimidin-2-yl)amino)-2,3-difluorobenzamide] | < 100
COc1ccc(C2CN(C(=O)N[C@@H]3CCN(C#N)C3)C2)cc1 [Example 190, (R)-N-(1-cyanopyrrolidin-3-yl)-3-(4-methoxyphenyl)azetidine-1-carboxamide] | < 100
N#CN1C[C@H]2CCN(C(=O)Nc3cc(C(F)(F)F)ccc3F)[C@H]2C1 [Example 201, (3aR,6aR)-5-cyano-N-(2-fluoro-5-(trifluoromethyl)phenyl)hexahydro-pyrrolo[3,4-b]pyrrole-1(2H)-carboxamide] | < 100
Cc1cc(-c2ccc(NC(=O)N3CC[C@@H]4CN(C#N)C[C@@H]43)c(F)c2)ccn1 [Example 243, (3aR,6aR)-5-cyano-N-(2-fluoro-4-(2-methylpyridin-4-yl)phenyl)hexahydropyrrolo[3,4-b]pyrrole-1(2H)-carboxamide] | 100 to 1000
CN(C(=O)Nc1ccnc(N2Cc3ccccc3C2)c1)[C@@H]1CCN(C#N)C1 [Example 231, (R)-1-(1-cyanopyrrolidin-3-yl)-3-(2-(isoindolin-2-yl)pyridin-4-yl)-1-methylurea] | 100 to 1000
Cc1noc(C)c1-c1ccc2c(C(=O)N[C@@H]3CCN(C#N)C3)nn(CC3CC3)c2c1 [Example 155, (R)-N-(1-cyanopyrrolidin-3-yl)-1-(cyclopropylmethyl)-6-(3,5-dimethylisoxazol-4-yl)-1H-indazole-3-carboxamide] | < 100
N#CN1CC[C@@H](NC(=O)c2cc(-c3ccncc3)no2)C1 [Example 64, (R)—N-(1-cyanopyrrolidin-3-yl)-3-(pyridin-4-yl)isoxazole-5-carboxamide] | 100 to 1000
N#CN1CC[C@@H](NC(=O)N2CC(c3ccccc3)C2)C1 [Example 5, (R)—N-(1-cyanopyrrolidin-3-yl)-3-phenylazetidine-1-carboxamide] | 100 to 1000
C[C@@H]1CN(C#N)C[C@H]1NC(=O)c1ncc(-c2ccccc2)s1 [Example 70, N-((3S,4R)-1-cyano-4-methylpyrrolidin-3-yl)-5-phenylthiazole-2-carboxamide] | < 100
CN(C(=O)c1ccc(-c2ccncc2Cl)cc1)[C@@H]1CCN(C#N)C1 [Example 49, (R)-4-(3-chloropyridin-4-yl)-N-(1-cyanopyrrolidin-3-yl)-N-methylbenzamide] | 100 to 1000
CN(C(=O)Nc1ccc(Cl)cn1)[C@@H]1CCN(C#N)C1 [Example 267, (R)-3-(5-chloropyridin-2-yl)-1-(1-cyanopyrrolidin-3-yl)-1-methylurea] | 100 to 1000
(3aR,6aR)-1-(indoline-1-carbonyl)hexahydropyrrolo[3,4-b]pyrrole-5(1H)-carbonitrile [Example 269] | 1000 to 10000
N#CN1CC[C@@H](NC(=O)c2cc(-c3ccccn3)[nH]n2)C1 [Example 96, (R)-N-(1-cyanopyrrolidin-3-yl)-5-(pyridin-2-yl)-1H-pyrazole-3-carboxamide] | 100 to 1000

Second part, the compound after the results:

IC50 [nM] | Compound
< 100 | Cn1cc(-c2ccc(C(=O)N[C@@H]3CCN(C#N)C3)cc2F)cn1 [Example 76, (R)-N-(1-cyanopyrrolidin-3-yl)-3-fluoro-4-(1-methyl-1H-pyrazol-4-yl)benzamide]
< 100 | Cn1ncc2cc(-c3cnc(C(=O)N[C@@H]4CCN(C#N)C4)c(F)c3)ccc21 [Example 120, (R)-N-(1-cyanopyrrolidin-3-yl)-3-fluoro-5-(1-methyl-1H-indazol-5-yl)picolinamide]
100 to 1000 | N#CN1CC[C@@H](NC(=O)c2cc(-c3ccncc3)on2)C1 [Example 34, (R)-N-(1-cyanopyrrolidin-3-yl)-5-(pyridin-4-yl)isoxazole-3-carboxamide]
< 100 | Cc1nn(C)cc1-c1ccc(C(=O)N[C@@H]2CCN(C#N)C2)c(F)c1 [Example 80, (R)-N-(1-cyanopyrrolidin-3-yl)-4-(1,3-dimethyl-1H-pyrazol-4-yl)-2-fluorobenzamide]
100 to 1000 | COCCn1cc(-c2ccc(C(=O)N[C@@H]3CCN(C#N)C3)c(F)c2)cn1 [Example 82, (R)-N-(1-cyanopyrrolidin-3-yl)-2-fluoro-4-(1-(2-methoxyethyl)-1H-pyrazol-4-yl)benzamide]
< 100 | N#CN1CC[C@@H](NC(=O)c2ccc(-c3ccc(F)cc3)cn2)C1 [Example 173, (R)-N-(1-cyanopyrrolidin-3-yl)-5-(4-fluorophenyl)picolinamide]
100 to 1000 | N#CN1CC[C@@H](NC(=O)c2ccc(N3CCOCC3)c(F)c2)C1 [Example 32, (R)-N-(1-cyanopyrrolidin-3-yl)-3-fluoro-4-morpholinobenzamide]
100 to 1000 | Cn1cc(-c2ccc3nc(C(=O)N[C@@H]4CCN(C#N)C4)[nH]c3c2)cn1 [Example 83, (R)-N-(1-cyanopyrrolidin-3-yl)-6-(1-methyl-1H-pyrazol-4-yl)-1H-benzo[d]imidazole-2-carboxamide]
100 to 1000 | N#CN1CCC(NC(=O)c2ccnc(N3CCc4ccccc4C3)c2)C1 (stereo not drawn) [Example 27, N-(1-cyanopyrrolidin-3-yl)-2-(3,4-dihydroisoquinolin-2(1H)-yl)isonicotinamide]
< 100 | COc1cc(C(=O)N[C@@H]2CCN(C#N)C2)ccc1-c1ccncc1Cl [Example 39, (R)-4-(3-chloropyridin-4-yl)-N-(1-cyanopyrrolidin-3-yl)-3-methoxybenzamide]
100 to 1000 | COc1c(-c2cnn(C)c2)ccc(C(=O)N[C@@H]2CCN(C#N)C2)c1F [Example 115, (R)-N-(1-cyanopyrrolidin-3-yl)-2-fluoro-3-methoxy-4-(1-methyl-1H-pyrazol-4-yl)benzamide]
< 100 | N#CN1CC[C@@H](NC(=O)c2ccc(Nc3ncccn3)cc2F)C1 [Example 91, (R)—N-(1-cyanopyrrolidin-3-yl)-2-fluoro-4-(pyrimidin-2-ylamino)benzamide]
100 to 1000 | CO[C@@H]1CCN(c2ccc(C(=O)N[C@@H]3CCN(C#N)C3)c(F)c2)C1 [Example 146, N-((R)-1-cyanopyrrolidin-3-yl)-2-fluoro-4-((R)-3-methoxypyrrolidin-1-yl)benzamide]
< 100 | COc1ccccc1-c1ccc(C(=O)NC2CCN(C#N)C2)cc1 (racemic) [Example 14, N-(1-cyanopyrrolidin-3-yl)-2′-methoxy-[1,1′-biphenyl]-4-carboxamide]
